Earlier results, collected in patent US10092580B2, “Controlled-release otic structure modulating and innate immune system modulating compositions and methods for the treatment of otic disorders” (OTONOMY, INC., priority 2008, dated 2018).

What was measured:
[1] = administered by IV
V2-R = conditions: infusion into the scala tympani
[2] = minute concentrations (e.g., 0.05%)

In the case of CCN(CC)CC(=O)Nc1c(C)cccc1C [Lidocaine], the “sufferers in whom the noise associated with tinnitus is reduced or eliminated” value [1] is given as 60-80%.
For Cc1ccccc1C(=O)Nc1ccc(C(=O)N2CCCC(N(C)C)c3ccccc32)cc1 (stereo not drawn) [OPC-31260], the “Meniere's disease symptoms” value (V2-R) is given as “marked reduction”.
In the case of [H]/N=C(\N/C(=N/[H])NCCCCCCNC(=N)NC(=N)Nc1ccc(Cl)cc1)Nc1ccc(Cl)cc1 [chlorhexidene], the ototoxicity [2] is listed as “highly ototoxic”.
